# Measurements as given in patent US20220175809A1, “TREATMENT AND PREVENTION OF INFECTIONS BY HERPESVIRIDAE WITH DELPHINIDIN-3-GLUCOSIDE” (Evonik Operations GmbH, priority 2019, published 2022).
# Experiments:
# HHV-8 = assay: Anti-viral assay, GFP-encoding HHV-8 infection (infected cells counted); format: cell-based, Herpes virus 8; conditions: materials adjusted to same anthocyanin levels, counted two days after infection
# Procedure: (§1) BHK cells were incubated with decreasing concentration of the solubilized test compounds for approx. 1 h. All concentrations were analyzed by six independent replicates on a black 96 well plate (PerkinElmer). Cells were infected with GFP-encoding wildtype HSV-1 virus and incubated for two days. Two days after infection, HSV-1-infected cells and GFP expressing cells were directly counted using the PerkinElmer Ensight system with optical cell culture plates. The instrument was controlled by manual counting. Anti-viral assays for HHV8 were performed accordingly. To not only analyze the virus entry and early phase of virus replication of infection but also later phases of viral replication, the test assay was adjusted accordingly. BHK cells were incubated with test compounds and subsequently infected with HSV-1. Two days after infection supernatants were collected, centrifuged to remove detached cells and used to infect BHK cells. After two additional days infected cells were quantified using the Ensight system.
# The concentrations of materials were again adjusted to the same levels of anthocyanins. No treatment or only maltodextrin served as controls. The cells were subsequently infected with GFP-encoding HHV-8, and infected GFP-expressing cells were counted two days after infection using the PerkinElmer Ensight system. […] The analysis of berry extract analogue without maltodextrin and the maltodextrin control confirmed again that the sugar moiety is not required as potential co-factor for drug uptake.
# HSV-1 = assay: Anti-viral assay, GFP-encoding HSV-1 infection of BHK cells (infected cells counted); format: cell-based, herpes simplex virus 1; conditions: BHK cells treated with anthocyanins, then GFP-encoding HSV-1
# Procedure: as §1
# The cells were subsequently infected with GFP-encoding HSV at a multiplicity of infection of 2.5, and infected GFP-expressing cells were counted one day after infection using the PerkinElmer Ensight system. […] Thus, the sugar is not required as potential co-factor for drug uptake.
structure (smiles),measurement,setting,value
"OC[C@H]1OC(Oc2cc3c(O)cc(O)cc3[o+]c2-c2cc(O)c(O)c(O)c2)[C@H](O)C(O)C1O (stereo partly shown) [D3G, Delphinidin-3-glucoside]",suppression of HHV-8 viral infectivity,HHV-8,identified as an active ingredient
same,suppression of HHV-8 viral infectivity,HHV-8; listed as D3G derived from red grape extract,reduced the number of infected cells significantly
same,suppression of HHV-8 viral infectivity,HHV-8; listed as D3G from Healthberry® 865,reduced the number of infected cells significantly
same,inhibition of HSV-1 (viral infectivity),HSV-1,decreased viral infectivity like Healthberry® 865
